Source: article PMC3687796 (Clinical cancer research : an official journal of the …, 2011)
Structures can show the parent of a compound that is named as a salt.

Assays:
[1] = tested on: KHOS; test: In vitro cytotoxicity, Alamar blue cell viability; type: cell-based; settings: 72 h, read-out: IC50, viability of KHOS
[2] = tested on: tumor cell lines; test: In vitro cytotoxicity, Alamar blue cell viability, all tumor cell lines; type: cell-based; settings: 72 hours treatment, all concentrations tested
[3] = PKs of topotecan and pazopanib in nontumor-bearing animals; type: in vivo, mouse; settings: for difference between plasma concentrations of single agent and combination treated animals: at any time point
[4] = tested on: KHOS osteosarcoma xenograft; test: KHOS osteosarcoma xenograft model; type: in vivo; settings: for tumor growth / tumor weight at the end of the treatment / tumor microvessel density (vWF pixel counts): 28 days; for tumor microvessel density (vWF pixel counts): compared with the control
[5] = tested on: SH-SY5Y xenograft; test: SH-SY5Y subcutaneous xenograft model; type: in vivo; settings: for tumor microvessel density (CD31 pixel counts): compared with the control, 20 days treatment; for tumor growth delay / tumor weights at the end of the treatment: daily oral, 20 days, LDM TP 1.0 mg/kg, PZ 150 mg/kg, TP + PZ both
[6] = tested on: RH30 rhabdomyosarcoma xenograft; test: RH30 rhabdomyosarcoma xenograft model; type: in vivo; settings: for tumor growth: LDM TP 1.0 mg/kg, PZ 150 mg/kg, TP + PZ both
[7] = tested on: BE(2)-c metastatic model; test: BE; type: in vivo, mouse; settings: daily oral until death or endpoint
[8] = tested on: RD; test: In vitro cytotoxicity, Alamar blue cell viability; type: cell-based; settings: Homo sapiens, 72 h, read-out: IC50, viability of RD
[9] = tested on: RH30; test: In vitro cytotoxicity, Alamar blue cell viability; type: cell-based; settings: Rh30, 72 h, read-out: IC50, viability of RH30
[10] = tested on: ovarian cancer model; settings: cited from earlier work
[11] = Pulse TP weekly oral 15 mg/kg topotecan
[12] = daily oral, LDM TP 1.0 mg/kg, TP + PZ 1.0 + 150 mg/kg

**Q.** What does the source list for CC[C@@]1(O)C(=O)OCc2c1cc1n(c2=O)Cc2cc3c(CN(C)C)c(O)ccc3nc2-1 [topotecan, (S)-10-[(dimethylamino)methyl]-4-ethyl-4,9-dihydroxy-1H-yrano [3′,4′:6,7] indolizino[1,2-b] quinoline-3,14 (4H,12H)-dione monohydrochloride]?
**A.** IC50 [1]: 4.9 ng/mL; effect on viability of the tumor cell lines [2]: dose-dependent reduction in the viability; peak plasma concentration of topotecan ([3]; LDM TP group, single oral 1.0 mg/kg topotecan): 19.75 ng/mL; peak plasma concentration of topotecan ([3]; TP + PZ group, single oral 1.0 mg/kg topotecan + 150 mg/kg pazopanib): 33.05 ng/mL; difference between plasma concentrations of single agent and combination treated animals [3]: no significant difference; tumor growth [4, 11]: delayed the tumor growth; tumor weight at the end of the treatment [4, 11]: significantly lower tumor weight; tumor growth [4, 12]: delayed the tumor growth; tumor weight at the end of the treatment [4, 12]: significantly lower tumor weight; viable CEP levels in blood ([4]; after 28 days treatment): significant reduction in viable CEP levels compared with Pulse TP; tumor microvessel density (vWF pixel counts) ([4]; Pulse TP weekly 15 mg/kg): caused reduction in microvessel densities; tumor microvessel density (vWF pixel counts) ([4]; daily regimens): caused reduction in microvessel densities; tumor microvessel density (CD31 pixel counts) [5]: but not LDM TP caused significant reduction in microvessel densities; tumor growth delay [5]: tumor growth delay in the order PZ< LDM TP< TP+PZ; tumor weights at the end of the treatment [5]: significant tumor weight reduction compared with PZ; tumor growth ([6]; daily oral, 56 days): ineffective in controlling the tumor growth; survival [7]: higher than PZ-treated animals; IC50 [8]: 7.5 ng/mL; IC50 [9]: 7.4 ng/mL; food intake ([10]; 1.5 mg/kg daily, oral): decreased food intake; microvascular density compared with weekly maximum-tolerated dose regimen (7.5 and 15 mg/kg) ([10]; daily oral metronomic 0.5, 1.0 and 1.5 mg/kg): greater reduction in microvascular density

**Q.** Which results are given for Cc1ccc(Nc2nccc(N(C)c3ccc4c(C)n(C)nc4c3)n2)cc1S(N)(=O)=O [pazopanib, 5-[[4-[(2,3-Dimethyl-2H-indazol-6-yl)methyl-amino]-2-pyrimidinyl]amino]-2-methylbenzolsulfonamide]?
**A.** effect on viability of the tumor cell lines [2]: did not affect the viabilities; difference between plasma concentrations of single agent and combination treated animals [3]: no significant difference; Cmax ([3]; mouse, plasma, po, 150 mg/kg): 134 µg/mL; tumor microvessel density (CD31 pixel counts) [5]: significant reduction in microvessel densities; tumor growth delay [5]: tumor growth delay in the order PZ< LDM TP< TP+PZ; tumor weights at the end of the treatment [5]: significant difference in tumor weights compared with the control; WBC level (bone marrow toxicity) ([6]; after 31 days treatment): reduced WBC level significantly; viable CEP levels in blood ([6]; after 31 days treatment): significantly lower viable CEP levels compared with the control; enhancement of survival compared with both control and LDM TP ([6]; daily oral, 56 days): 2 fold; tumor growth ([6]; daily oral, 56 days): delayed the tumor growth
